# Where two headings read alike, the source gives them in different places.
# Experiments:
# [1] = tested on: CO (prostaglandin F2a or TxB2) in dog whole blood; test: Procedure IV: ex vivo eicosanoid synthesis in dog whole blood after oral dosing, CO; settings: Canis lupus familiaris, read-out: % INHIB/HOURS CO (Proc. IV); for inhibition at 1 mg/kg: 1 MPK; for inhibition at 5 mg/kg: 5 MPK
# Method: (§1) Ex Vivo eicosanoid synthesis in dog whole blood. Adult beagle or mongrel dogs (10-15 kg) of either sex were fasted overnight prior to the initiation of each experiment. The forelimb was clipped and swabbed with an alcohol prep (70% isopropanol). Blood was drawn by venipuncture into syringes containing lithium heparin (Starstead, Newton N.C.) immediately prior to administration of compound or vehicle and then at various intervals following dosing. The test compound was administered orally as a suspension in 0.5% methocel. At various times after dosing, blood samples were drawn and placed on an electric rocker platform to assure complete and continuous mixing. White blood cell (wbc) counts were performed using a Sysmex hematology analyzer. This was done in an effort to normalize the number of leukocytes to be stimulated with calcium ionophore. A 1.0 mL aliquot of whole blood was challenged with 50 μL of a 2.6×10^-5 M solution of calcium ionophore A23187 (Calbiochem, La Jolla, Calif.) prepared in DMSO and diluted in HBSS. After a 15 minute incubation at 37° C., the reaction was stopped by placing the samples in an ice bath (4° C.) for 5 minutes and then centrifuged at 11,000×g for 5 minutes to separate the plasma fraction from blood cells. The plasma fraction was removed, diluted in an appropriate buffer, and analyzed for the presence of LTB4 and prostaglandin F2a or TxB2 by standard RIA techniques.
# (§2) In the following tables, the superscripts indicate the number of experiments and, unless otherwise stated, the dose at which % inhibition is reported is 3 MPK.
# [2] = tested on: 5-LO (LTB4) in dog whole blood; test: Procedure IV: ex vivo eicosanoid synthesis in dog whole blood after oral dosing, 5-LO; settings: Canis lupus familiaris, read-out: % INHIB/HOURS 5-LO (Proc. IV); for inhibition at 1 mg/kg: 1 MPK; for inhibition at 5 mg/kg: 5 MPK
# Method: as §1, §2
smiles,measurement,setting,value
COc1ccc(-n2nc(COC(=O)N(O)C(C)C)cc2-c2ccc(C)cc2)cc1 [1-L],inhibition at 1 mg/kg,[1]; 2 hours,68%
same,inhibition at 1 mg/kg,[2]; 2 hours,22%
COc1ccc(-n2nc(CCCOC(=O)N(O)C(C)C)c(Cl)c2-c2ccc(Cl)cc2)cc1 [3-E],inhibition at 5 mg/kg,[1]; 2 hours,76%
same,inhibition at 5 mg/kg,[2]; 24 hours,22%
COc1ccc(-n2nc(CCOC(=O)N(C)O)c(Br)c2-c2ccc(Cl)cc2)cc1 [2-E],inhibition at 5 mg/kg,[1]; 6 hours,62%
same,inhibition at 5 mg/kg,[2]; 6 hours,57%
COc1ccc(-n2nc(CCOC(=O)N(C)O)c(Cl)c2-c2ccc(C)cc2)cc1 [2-I],inhibition at 5 mg/kg,[1]; 6 hours,0%
same,inhibition at 5 mg/kg,[2]; 6 hours,0%
COc1ccc(-n2nc(CCOC(=O)N(O)C(C)C)c(Cl)c2-c2ccc(C)cc2)cc1 [2-J],inhibition at 5 mg/kg,[1]; 4 hours,73%
same,inhibition at 5 mg/kg,[2]; 4 hours,26%
COc1ccc(-n2nc(CCOC(=O)N(O)C(C)C)cc2-c2ccc(Cl)cc2)cc1 [2-B],inhibition at 5 mg/kg,[1]; 2 hours,33%
same,inhibition at 5 mg/kg,[2]; 2 hours,0%
COc1ccc(-n2nc(CCOC(=O)N(O)C(C)C)c(Cl)c2-c2ccc(Cl)cc2)cc1 [2-D],inhibition at 5 mg/kg,[1]; 2 hours,41%
same,inhibition at 5 mg/kg,[2]; 2 hours,32%
COc1ccc(-n2nc(COC(=O)N(O)C(C)C)c(Cl)c2-c2ccc(C)cc2)cc1 [1-R],inhibition at 1 mg/kg,[1]; 2 hours,7%
same,inhibition at 1 mg/kg,[2]; 2 hours,6%
COc1ccc(-n2nc(CCCOC(=O)N(C)O)c(Br)c2-c2ccc(Cl)cc2)cc1 [3-F],inhibition at 5 mg/kg,[1]; 2 hours,45%
same,inhibition at 5 mg/kg,[2]; 2 hours,8%
COc1ccc(-n2nc(COC(=O)N(C)O)cc2-c2ccc(C)cc2)cc1 [1-K],inhibition at 3 mg/kg,"[1]; 3 MPK, 2 hours",95%
same,inhibition at 3 mg/kg,"[2]; 3 MPK, 2 hours",21%
COc1ccc(-n2nc(CCOC(=O)N(C)O)cc2-c2ccc(Cl)cc2)cc1 [2-A],inhibition at 2.5 mg/kg,"[1]; 2.5 MPK, 6 hours",32%
same,inhibition at 2.5 mg/kg,"[2]; 2.5 MPK, 6 hours",0%
COc1ccc(-n2nc(CCCOC(=O)N(C)O)cc2-c2ccc(Cl)cc2)cc1 [3-B],inhibition at 5 mg/kg,[1]; 6 hours,94%
same,inhibition at 5 mg/kg,[2]; 6 hours,11%
COc1ccc(-n2nc(CCCOC(=O)N(C)O)c(Cl)c2-c2ccc(Cl)cc2)cc1 [3-D],inhibition at 5 mg/kg,[1]; 2 hours,93%
same,inhibition at 5 mg/kg,[2]; 2 hours,1%
COc1ccc(-n2nc(CCOC(=O)N(O)C(C)C)c(Br)c2-c2ccc(Cl)cc2)cc1 [2-F],inhibition at 5 mg/kg,[1]; 24 hours,42%
same,inhibition at 5 mg/kg,[2]; 24 hours,11%
COc1ccc(-n2nc(COC(=O)NO)c(Cl)c2-c2ccc(C)cc2)cc1 [1-P],inhibition at 5 mg/kg,[1]; 2 hours,72%
same,inhibition at 5 mg/kg,[2]; 2 hours,27%
COc1ccc(-n2nc(COC(=O)N(O)C(C)C)c(Br)c2-c2ccc(Cl)cc2)cc1 [1-F],inhibition at 7.5 mg/kg,"[1]; 7.5 MPK, 6 hours",82%
same,inhibition at 7.5 mg/kg,"[2]; 7.5 MPK, 6 hours",38%

# Reference: patent publication US5387602A, “1.5-diphenyl-3-(N-hydroxycarbamoyloxyalkyl)pyrazoles” (Ortho Pharmaceutical Corporation, priority 1993, dated 1995)
